Like-named read-outs stand apart in the source and are kept apart here.
Legend:
NAMPT = target: T1, NAMPT (Homo sapiens, UniProt P43490); experiment: Biochemical inhibition assay: NAMPT enzymatic reaction, NMN quantified by mass spectrometry; conditions: read-out: Biochem IC50
T1 construct: His tag; host or cells: E. coli
How it was run: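 Inhibition of E. coli-expressed His-tagged human NAMPT, measured as NMN formation by mass spectrometry after a 30 min room-temperature reaction containing 1 μM NAM, 100 μM PRPP and 2.5 mM ATP.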

A2780 cells = experiment: In-vitro cell proliferation assay (SRB), A2780 cells; type: cell-based; conditions: Homo sapiens, A2780, 72 h, A2780 cells, 72 hours, read-out: A2780 IC50
How it was run: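 Read-out is SRB absorbance at 570 nm on TCA-fixed cells after 72 hours of compound treatment at 37° C. in 5% CO2. Background from a media-only plate is subtracted, and % inhibition is interpolated between two tested concentrations.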

T1 sequence (P43490 whole entry): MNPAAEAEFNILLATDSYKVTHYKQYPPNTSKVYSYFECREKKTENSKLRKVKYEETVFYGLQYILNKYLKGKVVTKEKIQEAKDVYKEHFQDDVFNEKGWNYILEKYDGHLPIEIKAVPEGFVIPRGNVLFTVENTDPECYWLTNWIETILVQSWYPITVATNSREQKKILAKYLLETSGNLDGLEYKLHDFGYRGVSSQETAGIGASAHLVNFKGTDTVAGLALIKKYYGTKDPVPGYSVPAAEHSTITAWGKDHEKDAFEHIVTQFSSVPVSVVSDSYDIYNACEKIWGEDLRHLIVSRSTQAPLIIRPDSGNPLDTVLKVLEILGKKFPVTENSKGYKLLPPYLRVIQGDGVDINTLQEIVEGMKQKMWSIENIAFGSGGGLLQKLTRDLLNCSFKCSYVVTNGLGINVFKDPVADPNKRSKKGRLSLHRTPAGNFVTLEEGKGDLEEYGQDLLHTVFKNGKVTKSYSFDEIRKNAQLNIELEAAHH

SMILES	IC50 (NAMPT; NAMPT enzymatic reaction)	IC50 (A2780 cells; SRB assay)	IC50 (A2780 cells; SRB)	IC50 (NAMPT; NAMPT enzymatic assay)
O=C(NCc1ccc(S(=O)(=O)c2ccccc2C(F)(F)F)cc1)c1cc2ccncc2s1 [N-[(4-{[2-(trifluoromethyl)benzene]sulfonyl}phenyl)methyl]thieno[2,3-c]pyridine-2-carboxamide]	13 nM	26 nM		
Cc1ccc(S(=O)(=O)c2ccc(CNC(=O)c3cc4ccncc4o3)cc2)cc1Cl	52.8 nM		1.7 nM	
COc1cc(F)cc(S(=O)(=O)c2ccc(CNC(=O)c3cnc4[nH]ncc4c3)cc2)c1	4.4 nM		6.3 nM	
CN1CCN(c2ccc(S(=O)(=O)c3ccc(CNC(=O)c4cc5ccncc5s4)cc3)cc2)CC1			0.3 nM	1 nM
CCOc1ccccc1S(=O)(=O)c1ccc(CNC(=O)c2cnc3nccn3c2)cc1	1 nM		7.1 nM	
CN(C)Cc1ccc(S(=O)(=O)c2ccc(CNC(=O)c3cnc4nccn4c3)cc2)cc1			24.6 nM	3.3 nM
O=C(NCc1ccc(S(=O)(=O)c2cc(F)ccc2CO)cc1)c1cc2ccncc2s1			24.9 nM	7.7 nM
COc1cc(C)cc(S(=O)(=O)c2ccc(CNC(=O)c3cnc4nccn4c3)cc2)c1OC	4.2 nM		15.6 nM	
Cc1cccc(S(=O)(=O)c2ccc(CNC(=O)c3cc4ccncc4s3)cc2)c1C [N-({4-[(2,3-dimethylbenzene)sulfonyl]phenyl}methyl)thieno[2,3-c]pyridine-2-carboxamide]			4.4 nM	11 nM
O=C(NCc1ccc(S(=O)(=O)c2cnn(-c3ccc(F)cc3)c2)cc1)c1cc2ccncc2s1 [N-({4-[1-(4-fluorophenyl)-1H-pyrazole-4-sulfonyl]phenyl}methyl)thieno[2,3-c]pyridine-2-carboxamide]			6.2 nM	4.5 nM
O=C(NCc1ccc(S(=O)(=O)c2cc(F)cc(Cl)c2)cc1)c1cnc2nccn2c1	2.4 nM		2.9 nM	
COc1c(C)cc(S(=O)(=O)c2ccc(CNC(=O)c3cc4ccncc4s3)cc2)cc1C	9.8 nM		0.9 nM	
O=C(NCc1ccc(S(=O)(=O)c2cnc(N3CCCC3)s2)cc1)c1cnc2nccn2c1 [N-({4-[2-(pyrrolidin-1-yl)-1,3-thiazole-5-sulfonyl]phenyl}methyl)imidazo[1,2-a]pyrimidine-6-carboxamide]			0.9 nM	2.9 nM
O=C(NCc1ccc(S(=O)(=O)c2cccc(N3CCCC3)c2)cc1)c1cc2ccncc2s1			2.5 nM	1.9 nM
COc1cc(-n2cccn2)ccc1S(=O)(=O)c1ccc(CNC(=O)c2cc3ccncc3o2)cc1			6 nM	6.5 nM
Cc1ccc(S(=O)(=O)c2ccc(CNC(=O)c3cc4ccncc4o3)cc2)c(C)c1	21.8 nM		24 nM	
O=C(NCc1ccc(S(=O)(=O)c2cccc3c2OCC3)cc1)c1cc2ccncc2s1 [N-{[4-(2,3-dihydro-1-benzofuran-7-sulfonyl)phenyl]methyl}thieno[2,3-c]pyridine-2-carboxamide]			3 nM	2.2 nM
O=C(NCc1ccc(S(=O)(=O)c2ccccc2CN2CCOCC2)cc1)c1cnc2nccn2c1			100 to 1000 nM	14.5 nM
O=C(NCc1ccc(S(=O)(=O)c2ccc(Cl)cc2)cc1)c1cnc2nccn2c1	2.5 nM		23.6 nM	
CCCCOc1cc(F)ccc1S(=O)(=O)c1ccc(CNC(=O)c2cc3ccncc3s2)cc1	7 nM		6.3 nM	
CCCCOc1ccc(S(=O)(=O)c2ccc(CNC(=O)c3cc4ccncc4s3)cc2)cc1Cl	4.8 nM		12.5 nM	
CCOCc1ccc(S(=O)(=O)c2ccc(CNC(=O)c3cc4cnccc4[nH]3)cc2)cc1			6.8 nM	22.5 nM
COc1cc(Cl)cc(S(=O)(=O)c2ccc(CNC(=O)c3cnc4[nH]ncc4c3)cc2)c1	9.3 nM		2.5 nM	
CCCCOc1ccc(Cl)cc1S(=O)(=O)c1ccc(CNC(=O)c2cnc3[nH]ncc3c2)cc1 [N-({4-[(2-butoxy-5-chlorobenzene)sulfonyl]phenyl}methyl)-1H-pyrazolo[3,4-b]pyridine-5-carboxamide]	117 nM		73.7 nM	

Reference: patent US12336981B2, “Compounds and compositions for the inhibition of NAMPT” (Valo Health, Inc., priority 2010, dated 2025)
